Test results: patent US20210115509A1, “BIOMARKER FOR IDENTIFYING SPECIFIC EXPOSURE TO KETONES AND METHOD OF IDENTIFICATION USING THE SAME” (KOREA INSTITUTE OF SCIENCE AND TECHNOLOGY, priority 2019, published 2021)

Assays:
[1] = test system: BEAS-2B human bronchial epithelial cell line; experiment: MTT assay, cytotoxicity of ketone compounds in BEAS-2B cell line; assay type: cell-based; settings: human, 48 h
Method: BEAS-2B (Korean Cell Line Bank), a human bronchial epithelial cell line, was cultured using RPMI 1640 medium (Gibco, USA) supplemented with 10% FBS until the cells grew to about a confluence of 70 to 80% in a 100 mm dish.
Among ketones belonging to mVOCs (microbial volatile organic compounds) exposed to the environment, acetone, 2-butanone, 2-pentanone, 2-hexanone and 2-heptanone were selected, and the chemicals were dissolved in filtered distilled water (DW). A vehicle concentration was set to 0.1% or less in all experiments.
MTT assay using a BEAS-2B cell line was performed in accordance with the method of Mossman et al. (J. Immunol. Methods, 65, 55-63, 1983).
Specifically, the cells were seeded at a density of 3.5×10^4 cells/well in a 24-well plate and treated with the five ketone compounds dissolved in filtered distilled water, prepared in Example 1-2. After 48 hours, the result was mixed with 5 mg/ml of MTT (3-4,5-dimethylthiazol-2,5-diphenyltetrazolium bromide), added to a tube and incubated at 37° C. for 3 hours. Then, the medium was removed, the formed formazan crystal was dissolved in 500 μl of DMSO, and then 100 μl of the solution was transferred to a 96-well plate to measure an OD (optical density) value at 540 nm.

[2] = test system: BEAS-2B human bronchial epithelial cell line; experiment: Gene expression change by high-throughput RNA sequencing (NextSeq 500) in ketone-exposed BEAS-2B cells; assay type: cell-based
Method: RNA was extracted from cell samples of ketone-exposed and non-ketone-exposed groups using a TRIzol reagent (Life Technologies, USA) in accordance with the manufacturer's directions to isolate total RNA and the total RNA was purified using a RNeasy mini kit (Qiagen, USA). The concentration of each total RNA sample was determined by a ND-2000 spectrophotometer (Thermo Inc., DE, USA) as a spectrophotometer and Agilent 2100 Bioanalyzer (Agilent Technologies, USA).
The establishment of libraries from the total RNA obtained in Example 2-1 in the experimental group and the normal control group exposed to the ketones was carried out using a QuantSeq 3′ mRNA-Seq Library Prep Kit (Lexogen, Inc., Austria) in accordance with the manufacturer's directions. 500 ng of the total RNA was hybridized with an oligo-dT primer including an Illumina-compatible sequence at the 5′ end of RNA, followed by reverse transcription. After degradation of the RNA template, a second strand was synthesized using a random primer including an Illumina-compatible linker sequence at the 5′ end thereof. Double-stranded libraries were purified using magnetic beads to remove all reaction components. The library was amplified in order to add the entire adapter sequence required for cluster production, and the completed cDNA library was purified from the PCR components.
Sequencing was performed by high-throughput sequencing as single-end 75 sequencing using a NextSeq 500 (IIlumina, Inc., USA). Read count (RC) data was processed based on the quantile normalization method using EdgeR in R (R development Core Team, 2016) using Bioconductor (Gentleman et al., 2004). Gene classification was based on searches performed on DAVID (http://david.abcc.ncifcrf.gov/) and the Medline database (http://www.ncbi.nlm.nih.gov/).
The extracted data were analyzed through normalization using Agilent GeneSpring GX 12.6.1 (Agilent technologies, CA, USA) to analyze the expression pattern of each gene.

[3] = IC5 conc.: Acetone 5.38, 2-Butanone 22.27, 2-Pentanone 5.24, 2-Hexanone 14.82, 2-Heptanone 5.05 mM
[4] = IC20 conc.: Acetone 71.90, 2-Butanone 106.21, 2-Pentanone 39.38, 2-Hexanone 52.51, 2-Heptanone 20.22 mM

Compound: CCCCCC(C)=O [2-Heptanone, 2-heptanone]
- concentration (105) providing a survival rate (viability) of 95% [1]: 5050 µM
- concentration (1020) providing a survival rate (viability) of 80% [1]: 20220 µM
- Fold change ADRA2A (NM_000681) [2, 3]: 0.321
- Fold change ATRNL1 (NR_074088) [2, 3]: 3.365
- Fold change C12orf79 (NR_046159) [2, 3]: 0.213
- Fold change C14orf80 (NR_046159) [2, 3]: 0.354
- Fold change CALML3 (NM_001286399) [2, 3]: 0.354
- Fold change CCDC184 (NM_001013635) [2, 3]: 4.098
- Fold change CD37 (NM_001040031) [2, 3]: 5.216
- Fold change CDHR1 (NM_001171971) [2, 3]: 0.386
- Fold change CHL1 (NM_001253387) [2, 3]: 0.122
- Fold change COL4A3 (NM_000091) [2, 3]: 4.774
- Fold change CRLF2 (NM_022148) [2, 3]: 0.355
- Fold change CSF3R (NM_172313) [2, 3]: 0.354
- Fold change DNMBP-AS1 (NR_024130) [2, 3]: 2.035
- Fold change EGR1 (NM_001964) [2, 3]: 0.410
- Fold change GNA14 (NM_004297) [2, 3]: 4.971
- Fold change LOC728752 (NR_036504) [2, 3]: 5.873
- Fold change PAX8 (NM_003466) [2, 3]: 4.275
- Fold change PRRT3-AS1 (NR_046734) [2, 3]: 2.285
- Fold change RBP3 (NM_002900) [2, 3]: 0.354
- Fold change SEPT14 (NM_207366) [2, 3]: 0.214
- Fold change SERPINA12 (NM_001304461) [2, 3]: 0.354
- Fold change SLC13A4 (NM_012450) [2, 3]: 4.638
- Fold change SPOCK2 (NM_001244950) [2, 3]: 4.800
- Fold change TSPAN1 (NM_005727) [2, 3]: 4.660
- Fold change USP12-AB1 (NR_046647) [2, 3]: 11.319
- Fold change VIPR†-AS1 (NR_046654) [2, 3]: 0.354
- Fold change XIRP1 (NM_001198621) [2, 3]: 0.354
- Fold change ZFP69B (NM_023070) [2, 3]: 3.346
- Fold change ZNF432 (NM_014650) [2, 3]: 3.207
- Fold change ZNF487 (NR_026693) [2, 3]: 0.354
- Fold change ADRA2A (NM_000681) [2, 4]: 0.179
- Fold change ATRNL1 (NR_074088) [2, 4]: 3.204
- Fold change C12orf79 (NR_046159) [2, 4]: 0.213
- Fold change C14orf80 (NR_046159) [2, 4]: 0.354
- Fold change CALML3 (NM_001286399) [2, 4]: 0.354
- Fold change CCDC184 (NM_001013635) [2, 4]: 6.381
- Fold change CD37 (NM_001040031) [2, 4]: 3.227
- Fold change CDHR1 (NM_001171971) [2, 4]: 0.216
- Fold change CHL1 (NM_001253387) [2, 4]: 0.335
- Fold change COL4A3 (NM_000091) [2, 4]: 8.193
- Fold change CRLF2 (NM_022148) [2, 4]: 0.355
- Fold change CSF3R (NM_172313) [2, 4]: 0.354
- Fold change DNMBP-AS1 (NR_024130) [2, 4]: 11.098
- Fold change EGR1 (NM_001964) [2, 4]: 0.381
- Fold change GNA14 (NM_004297) [2, 4]: 4.498
- Fold change LOC728752 (NR_036504) [2, 4]: 5.440
- Fold change PAX8 (NM_003466) [2, 4]: 4.602
- Fold change PRRT3-AS1 (NR_046734) [2, 4]: 2.525
- Fold change RBP3 (NM_002900) [2, 4]: 0.354
- Fold change SEPT14 (NM_207366) [2, 4]: 0.214
- Fold change SERPINA12 (NM_001304461) [2, 4]: 0.354
- Fold change SLC13A4 (NM_012450) [2, 4]: 11.825
- Fold change SPOCK2 (NM_001244950) [2, 4]: 2.838
- Fold change TSPAN1 (NM_005727) [2, 4]: 3.058
- Fold change USP12-AB1 (NR_046647) [2, 4]: 4.509
- Fold change VIPR†-AS1 (NR_046654) [2, 4]: 0.354
- Fold change XIRP1 (NM_001198621) [2, 4]: 0.354
- Fold change ZFP69B (NM_023070) [2, 4]: 2.674
- Fold change ZNF432 (NM_014650) [2, 4]: 4.845
- Fold change ZNF487 (NR_026693) [2, 4]: 0.354

Compound: CCCCC(C)=O [2-Hexanone, 2-hexanone]
- concentration (105) providing a survival rate (viability) of 95% [1]: 14820 µM
- concentration (1020) providing a survival rate (viability) of 80% [1]: 52510 µM
- Fold change ADRA2A (NM_000681) [2, 3]: 0.410
- Fold change ATRNL1 (NR_074088) [2, 3]: 2.058
- Fold change C12orf79 (NR_046159) [2, 3]: 0.218
- Fold change C14orf80 (NR_046159) [2, 3]: 0.358
- Fold change CALML3 (NM_001286399) [2, 3]: 0.358
- Fold change CCDC184 (NM_001013635) [2, 3]: 3.872
- Fold change CD37 (NM_001040031) [2, 3]: 4.214
- Fold change CDHR1 (NM_001171971) [2, 3]: 0.228
- Fold change CHL1 (NM_001253387) [2, 3]: 0.296
- Fold change COL4A3 (NM_000091) [2, 3]: 4.765
- Fold change CRLF2 (NM_022148) [2, 3]: 0.362
- Fold change CSF3R (NM_172313) [2, 3]: 0.358
- Fold change DNMBP-AS1 (NR_024130) [2, 3]: 14.919
- Fold change EGR1 (NM_001964) [2, 3]: 0.448
- Fold change GNA14 (NM_004297) [2, 3]: 8.515
- Fold change LOC728752 (NR_036504) [2, 3]: 6.212
- Fold change PAX8 (NM_003466) [2, 3]: 5.964
- Fold change PRRT3-AS1 (NR_046734) [2, 3]: 2.811
- Fold change RBP3 (NM_002900) [2, 3]: 0.358
- Fold change SEPT14 (NM_207366) [2, 3]: 0.220
- Fold change SERPINA12 (NM_001304461) [2, 3]: 0.358
- Fold change SLC13A4 (NM_012450) [2, 3]: 4.947
- Fold change SPOCK2 (NM_001244950) [2, 3]: 4.851
- Fold change TSPAN1 (NM_005727) [2, 3]: 2.828
- Fold change USP12-AB1 (NR_046647) [2, 3]: 3.862
- Fold change VIPR†-AS1 (NR_046654) [2, 3]: 0.358
- Fold change XIRP1 (NM_001198621) [2, 3]: 0.358
- Fold change ZFP69B (NM_023070) [2, 3]: 4.095
- Fold change ZNF432 (NM_014650) [2, 3]: 5.206
- Fold change ZNF487 (NR_026693) [2, 3]: 0.358
- Fold change ADRA2A (NM_000681) [2, 4]: 0.179
- Fold change ATRNL1 (NR_074088) [2, 4]: 2.281
- Fold change C12orf79 (NR_046159) [2, 4]: 0.213
- Fold change C14orf80 (NR_046159) [2, 4]: 0.354
- Fold change CALML3 (NM_001286399) [2, 4]: 0.354
- Fold change CCDC184 (NM_001013635) [2, 4]: 6.982
- Fold change CD37 (NM_001040031) [2, 4]: 2.819
- Fold change CDHR1 (NM_001171971) [2, 4]: 0.432
- Fold change CHL1 (NM_001253387) [2, 4]: 0.364
- Fold change COL4A3 (NM_000091) [2, 4]: 4.424
- Fold change CRLF2 (NM_022148) [2, 4]: 0.355
- Fold change CSF3R (NM_172313) [2, 4]: 0.354
- Fold change DNMBP-AS1 (NR_024130) [2, 4]: 5.009
- Fold change EGR1 (NM_001964) [2, 4]: 0.328
- Fold change GNA14 (NM_004297) [2, 4]: 4.986
- Fold change LOC728752 (NR_036504) [2, 4]: 6.982
- Fold change PAX8 (NM_003466) [2, 4]: 2.992
- Fold change PRRT3-AS1 (NR_046734) [2, 4]: 3.123
- Fold change RBP3 (NM_002900) [2, 4]: 0.354
- Fold change SEPT14 (NM_207366) [2, 4]: 0.214
- Fold change SERPINA12 (NM_001304461) [2, 4]: 0.354
- Fold change SLC13A4 (NM_012450) [2, 4]: 7.012
- Fold change SPOCK2 (NM_001244950) [2, 4]: 3.833
- Fold change TSPAN1 (NM_005727) [2, 4]: 4.272
- Fold change USP12-AB1 (NR_046647) [2, 4]: 3.988
- Fold change VIPR†-AS1 (NR_046654) [2, 4]: 0.354
- Fold change XIRP1 (NM_001198621) [2, 4]: 0.354
- Fold change ZFP69B (NM_023070) [2, 4]: 2.573
- Fold change ZNF432 (NM_014650) [2, 4]: 4.577
- Fold change ZNF487 (NR_026693) [2, 4]: 0.354
